Data: article PMC3259267 (Bioorganic & medicinal chemistry, 2011)

Tests used:
[1] = Plasma concentration and blood brain barrier penetration; conditions: G93A SOD1 transgenic mice, single ip 50 mg/kg
[2] = tested on: panel of 68 radioligand receptor assays; assay: LeadProfilingScreen radioligand binding panel; conditions: 10 uM; none positive, mostly <10%
[3] = Caco-2 monolayer permeability; conditions: human
ALS = ALS patients, on average; ref [1]; cited from earlier work

O=C1CC(=O)CC(c2cc(C(F)(F)F)cc(C(F)(F)F)c2)C1 [Compound 26]
period of stable plasma concentrations [1]: 3 to 12 h | inhibition in all 68 radioligand receptor assays [2]: < 20%

CC(Oc1cc(C(F)(F)F)cc(C(F)(F)F)c1)C1CC(=O)CC(=O)C1 (stereo not shown) [Compound 73]
Papp A→B at 2 h, 50 μM [3]: 24.8 ×10⁻⁶ cm/s

Nc1nc2ccc(OC(F)(F)F)cc2s1 [riluzole]
extension of life (ALS): 2–3 months
